Measurements: US20070128217A1 (priority 2003, published 2007)

Experiments:
[1] = system: recombinant human anti-SARS-CoV antibody 03-018; format: binding; parameters: Binding of antibody 03-018 to linear peptides of the N protein of SARS-CoV Urbani / Binding of antibody 03-018 to looped/cyclic peptides of the N protein of SARS-CoV Urbani: unit not given here
[2] = system: antibodies in sera from SARS patients (sera 1a, 1b, 2, 6, 37, 62, London, SARS-yellow, SARS-green); format: binding, human; parameters: Binding of serum 6 to linear peptides of protein X1 of SARS-CoV Urbani / Binding of serum 37 to linear peptides of protein X1 of SARS-CoV Urbani / Binding of serum 6 to looped/cyclic peptide (PEPSCAN-ELISA) / Binding of serum 37 to looped/cyclic peptide (PEPSCAN-ELISA) / Binding of serum 37 to looped/cyclic peptides of protein X1 of SARS-CoV Urbani / Binding of serum 6 to linear peptides of protein X2 / Binding of serum 37 to linear peptides of protein X2 / Binding of serum 37 to looped/cyclic peptides of protein X2 of SARS-CoV Urbani / Binding of serum 6 to linear peptides of protein M of SARS-CoV Urbani / Binding of serum 37 to linear peptides of protein M of SARS-CoV Urbani / Binding of serum 6 to looped/cyclic peptides of protein M of SARS-CoV Urbani / Binding of serum 37 to looped/cyclic peptides of protein M of SARS-CoV Urbani / Binding of serum 6 to linear peptides of protein X3 of SARS-CoV Urbani / Binding of serum 37 to linear peptides of protein X3 of SARS-CoV Urbani / Binding of serum 37 to looped/cyclic peptides of protein X3 of SARS-CoV Urbani / Binding of serum 6 to linear peptides of protein X4 of SARS-CoV Urbani / Binding of serum 37 to linear peptides of protein X4 of SARS-CoV Urbani / Binding of serum 37 to looped/cyclic peptides of protein X4 of SARS-CoV Urbani / Binding of serum 6 to linear peptides of protein X5 of SARS-CoV Urbani / Binding of serum 37 to linear peptides of protein X5 of SARS-CoV Urbani / Binding of serum 37 to looped/cyclic peptides of protein X5 of SARS-CoV Urbani / Binding of serum 6 to linear peptides of protein N of SARS-CoV Urbani / Binding of serum 37 to linear peptides of protein N of SARS-CoV Urbani / Binding of serum 6 to linear peptide (PEPSCAN-ELISA) / Binding of serum 1a to looped/cyclic peptides of protein N of SARS-CoV Urbani / Binding of serum 1b to looped/cyclic peptides of protein N of SARS-CoV Urbani / Binding of serum 2 to looped/cyclic peptides of protein N of SARS-CoV Urbani / Binding of serum 6 to looped/cyclic peptides of protein N of SARS-CoV Urbani / Binding of serum 37 to looped/cyclic peptides of protein N of SARS-CoV Urbani / Binding of serum 62 to looped/cyclic peptides of protein N of SARS-CoV Urbani / Binding of serum London to looped/cyclic peptides of protein N of SARS-CoV Urbani / Binding of serum SARS-green to looped/cyclic peptides of protein N of SARS-CoV Urbani: unit not given here
[3] = system: control sera (pooled serum of ten healthy LUMC hospital workers; commercial negative donor pooled serum from the Dutch bloodbank); format: binding, human; parameters: Binding of Control serum LUMC to linear peptides / Binding of Control serum Blood-bank to linear peptides / Binding of Control serum LUMC to looped peptides / Binding of Control Serum Blood-Bank to Looped peptides / Binding of Control serum LUMC to linear peptides of the protein M of SARS-CoV Urbani / Binding of Control serum Blood-bank to linear peptides of the protein M of SARS-CoV Urbani / Binding of Control serum LUMC to looped peptides of the protein M of SARS-CoV Urbani / Binding of Control Serum Blood-Bank to Looped peptides of the protein M of SARS-CoV Urbani: unit not given here
[4] = system: rabbit serum obtained by immunizing a rabbit with the SARS-CoV strain Frankfurt 1; format: binding; parameters: Binding of a rabbit serum to linear peptides / Binding of a rabbit serum to looped peptides / Rabbit serum linear peptides / Rabbit serum looped peptides / Binding of a rabbit serum to linear peptides of protein N of SARS-CoV Urbani (Rabbit serum linear peptides) / Binding of a rabbit serum to looped/cyclic peptides of protein N of SARS-CoV Urbani (Rabbit serum looped peptides): unit not given here

Sequence	Binding of antibody 03-018 to linear peptides of the N protein of SARS-CoV Urbani [1]	Binding of antibody 03-018 to looped/cyclic peptides of the N protein of SARS-CoV Urbani [1]	Binding of serum 1a to looped/cyclic peptides of protein N of SARS-CoV Urbani [2]	Binding of serum 1b to looped/cyclic peptides of protein N of SARS-CoV Urbani [2]	Binding of serum 2 to looped/cyclic peptides of protein N of SARS-CoV Urbani [2]	Binding of serum 6 to looped/cyclic peptides of protein N of SARS-CoV Urbani [2]	Binding of serum 37 to looped/cyclic peptides of protein N of SARS-CoV Urbani [2]	Binding of serum 62 to looped/cyclic peptides of protein N of SARS-CoV Urbani [2]	Binding of serum London to looped/cyclic peptides of protein N of SARS-CoV Urbani [2]	Binding of serum SARS-green to looped/cyclic peptides of protein N of SARS-CoV Urbani [2]	Binding of serum SARS-yellow to looped/cyclic peptides of protein N of SARS-CoV Urbani [2]	Binding of a rabbit serum to linear peptides of protein N of SARS-CoV Urbani (Rabbit serum linear peptides) [4]	Binding of a rabbit serum to looped/cyclic peptides of protein N of SARS-CoV Urbani (Rabbit serum looped peptides) [4]	further results
GTWLTYHGAIKLDDK	0.1	0.2	0.2	0.1	0.2	0.1	0.4	0.3	0.3	0.1	0.5	0.1	0.2	Binding of serum 1a to linear peptides of protein N of SARS-CoV Urbani [2]: 0.2; Binding of serum 1b to linear peptides of protein N of SARS-CoV Urbani [2]: 0.1; Binding of serum 2 to linear peptides of protein N of SARS-CoV Urbani [2]: 0.2; Binding of serum 6 to linear peptides of protein N of SARS-CoV Urbani [2]: 0.1; Binding of serum 37 to linear peptides of protein N of SARS-CoV Urbani [2]: 0.7; Binding of serum 62 to linear peptides of protein N of SARS-CoV Urbani [2]: 0.7; Binding of serum London to linear peptides of protein N of SARS-CoV Urbani [2]: 0.5; Binding of serum SARS-green to linear peptides of protein N of SARS-CoV Urbani [2]: 0.4; Binding of serum SARS-yellow to linear peptides of protein N of SARS-CoV Urbani [2]: 0.7; Control Serum Blood-Bank Looped peptides [3]: 0.4; Control serum Blood-bank linear peptides [3]: 0.6; Control serum LUMC linear peptides [3]: 0.6; Control serum LUMC looped peptides [3]: 0.4
KGFYAEGSRGGSQAS	0.1	0.2	0.3	0.2	0.3	0.2	0.4	0.3	0.3	0.1	0.1	0.1	0.1	Binding of serum 1a to linear peptide (PEPSCAN-ELISA) [2]: 0.2; Binding of serum 1b to linear peptide (PEPSCAN-ELISA) [2]: 0.1; Binding of serum 2 to linear peptide (PEPSCAN-ELISA) [2]: 0.2; Binding of serum 6 to linear peptide (PEPSCAN-ELISA) [2]: 0.2; Binding of serum 37 to linear peptide (PEPSCAN-ELISA) [2]: 0.6; Binding of serum 62 to linear peptide (PEPSCAN-ELISA) [2]: 0.5; Binding of serum London to linear peptide (PEPSCAN-ELISA) [2]: 0.4; Binding of serum SARS-green to linear peptide (PEPSCAN-ELISA) [2]: 0.2; Binding of serum SARS-yellow to linear peptide (PEPSCAN-ELISA) [2]: 0.5; Binding of Control Serum Blood-Bank to Looped peptides [3]: 0.5; Binding of Control serum Blood-bank to linear peptides [3]: 0.7; Binding of Control serum LUMC to linear peptides [3]: 0.5; Binding of Control serum LUMC to looped peptides [3]: 0.4
